Data from patent publication US20050130949A1, “Cyclic polyamine compounds for cancer therapy” (priority 2000, published 2005).

Legend:
DuPro cells = test: Intracellular polyamine and analog levels by HPLC of dansylated extracts; assay type: cell-based, human
Protocol: For data shown in Tables 3a and 3b, intracellular polyamine levels were determined using a standard protocol. About 0.5-1×10^6 cells were taken from harvested samples and centrifuged at 1000 rpm at 4° C. for 5 min. The cells were washed twice with chilled Dulbecco's isotonic phosphate buffer (pH 7.4) by centrifugation at 1000 rpm at 4° C. and resuspended in the same buffer. After the final centrifugation, the supernatant was decanted, and 250 μl of 8% sulfosalycilic acid was added to the cell pellet. The cells were then sonicated, and the mixture was kept at 4° C. for at least 1 h. After centrifugation at 8,000 g for 5 min, the supernatant was removed for analysis. An appropriate volume (50-100 μl) was fluorescence-labeled by derivatizing with dansyl chloride. Labeled polyamines were loaded onto a C-18 high-performance liquid chromatography column and separated by gradient elution with acetonitrile/water at 50° C. Peaks were detected and quantitated using a Shimadzu HPLC fluorescence monitor coupled with a Spectra-Physics peak integrator. Because polyamine levels vary with environmental conditions, control cultures were sampled for each experiment.

PC-3 = test: MTT assay, cell growth inhibition, PC-3; assay type: cell-based; conditions: Homo sapiens, PC-3, 144 h, 6 days with drug, read-out: ID50 PC-3
Excerpt: (§1) To assess the utility of the subject compounds in the treatment of neoplastic cell growth, the ability of the compounds to inhibit the in vitro growth characteristics of several commonly used cancer models were studied. The subject polyamines induce cell growth inhibitions in several cultured human prostate tumor cell lines such as LnCap, DuPro, and PC-3 as determined by the accepted MTT assay (Table 2) (Hansen, M. B. et al., “Re-examination and further development of a precise and rapid dye method for measuring cell growth/cell kill,” J. Immunol. Methods (1989)119(2):203-10). […] The results with the DuPro cell line are representative of the results with human prostate cell lines.
(§2) For the data shown in Table 2, an accepted MTT assay protocol was used. A trypsinized cell suspension was diluted to seed 80 μl suspension containing 500 cells in each well of a 96 well microtiter plates and incubated overnight at 37° C. in a humidified incubator in 5% CO2. Twenty μl of appropriately diluted stock solution of each drug was added to the middle 8 columns of cell suspension in the microtiter plates. Each drug concentration was run in quadruplicate. Outer columns of the plates were used for buffer controls. Cells were incubated with the drug for 6 days at 37° C. in 5% CO2/H2O atmosphere. Twenty five μl of 5 mg/ml solution of 3-(4,5-dimethythiazol-2-yl)-2,5-diphenyl tetrazolium bromide (MTT) was added to each well and incubated for 4 hours at 37° C. in 5% CO2/H2O incubator. Cells were lysed by incubating overnight with 100 μl lysis buffer (500 ml of the lysis buffer containing: 100 g lauryl sulfate (SDS), 250 ml of N,N-dimethyl formamide in 2 ml of glacial acetic acid, pH 4.8). The color was monitored at room temperature at 570 nm in a E-max Precision Microplate Reader (Molecular Devices Corporation, Sunnyvale, Calif.) and data were analyzed using cell survival software supplied by Molecular Devices Corporation.

LnCap = test: MTT assay, cell growth inhibition, LnCap; assay type: cell-based; conditions: Homo sapiens, 144 h, 6 days with drug, read-out: ID50 LnCap
Excerpt: as §1, §2

DuPro = test: MTT assay, cell growth inhibition, DuPro; assay type: cell-based; conditions: Homo sapiens, 144 h, 6 days with drug, read-out: ID50 DuPro
Excerpt: as §1, §2

[1] = inorganic phosphate released from 100 μM ATP in 24 hour, 37° C.
Protocol: In a 96 well microtiter plate, the first two columns were routinely used for standard curve generation. For the standard curve, 40 μl of 0-70 μM phosphate buffer was used by serially diluting 1 mM NaH2PO4 solution in 1 N HCl. For ATP hydrolysis, the rest of the microtiter plate was equally divided into two sections to run two analogs at a time. Each section was divided into the appropriate number of columns to serially dilute each analog between 0-10 mM in 29 μl 2N HCl for the final concentration of 2 N HCl. Each drug concentration was run in quadruplicate. Equal volumes of 500 μM ATP solution (pH 7.5) were added to each well and the plates were incubated at 37° C. for appropriate lengths of time between 2-24 h. At the end of the incubation period, 160 μl of coloring agent (0.045% Malachite Green in water and 4.2% ammonium molybdate in 4 N HCl (3:1 v/v)) was added and the plates were incubated at 37° C. for another 30 mins. All plates were read at 595 nm using a Emax precision microplate reader (Molecular Device, San Jose, Calif.). A control plate containing analog solutions without ATP was created for each experiment. Control plate reading was subtracted from each experimental plate and all data was normalized to ATP hydrolysis at zero concentration of polyamine analog. The average and standard deviation for quadruplicate runs were plotted.

[2] = 1 μM analog, Day 4 of Treatment
[3] = 1 μM analog, Day 6 of Treatment
[4] = 2 μM analog, Day 4 of Treatment
[5] = 2 μM analog, Day 6 of Treatment
[6] = 0.5 μM analog, Day 4 of Treatment
[7] = 0.5 μM analog, Day 6 of Treatment

Analog level (uptake) (DuPro cells; [2])	Analog level (uptake) (DuPro cells; [3])	Analog level (uptake) (DuPro cells; [4])	Analog level (uptake) (DuPro cells; [5])	IC50 (PC-3)	IC50 (LnCap)	Analog level (uptake) (DuPro cells; [6])	Analog level (uptake) (DuPro cells; [7])	Compound	Spm (spermine) level (DuPro cells; [2])	Spm (spermine) level (DuPro cells; [3])	Spm (spermine) level (DuPro cells; [4])	Spm (spermine) level (DuPro cells; [5])	IC50 (DuPro)	Spm (spermine) level (DuPro cells; [6])	Spm (spermine) level (DuPro cells; [7])	further results
2.788 nmoles/10^6 cells	17.206 nmoles/10^6 cells	25.074 nmoles/10^6 cells	21.472 nmoles/10^6 cells	0.6 µM	2.2 µM	–	–	CCCCCCCCCCCCCC1CC(=O)NCCCNCCCCNCCCN1 (stereo not drawn) [SL-11174]	0.002 nmoles/10^6 cells	0.001 nmoles/10^6 cells	0.001 nmoles/10^6 cells	0.0021 nmoles/10^6 cells	0.83 µM	–	–	–
–	–	49.072 nmoles/10^6 cells	42.341 nmoles/10^6 cells	0.5 µM	2.6 µM	47.566 nmoles/10^6 cells	35.913 nmoles/10^6 cells	CCCCCCCCCCCCCC1CC(=O)NCCCNCCCNCCCN1 (stereo not drawn) [SL-11197]	–	–	–	–	0.58 µM	0.004 nmoles/10^6 cells	0.002 nmoles/10^6 cells	–
–	–	17.198 nmoles/10^6 cells	10.241 nmoles/10^6 cells	1.4 µM	1.5 µM	26.959 nmoles/10^6 cells	26.841 nmoles/10^6 cells	CCCCCCCCCCCCCC1CC(=O)NCCCNCCCCCNCCCN1 (stereo not drawn) [SL-11199]	–	–	–	–	1.2 µM	0.002 nmoles/10^6 cells	0.003 nmoles/10^6 cells	Spd (spermidine) level (DuPro cells; [7]): 0.005 nmoles/10^6 cells
10.089 nmoles/10^6 cells	46.776 nmoles/10^6 cells	5.989 nmoles/10^6 cells	49.309 nmoles/10^6 cells	1.3 µM	–	–	–	CCCCCCCCCCCCCC1CC(=O)NCCCNCCCNCCCNCCCN1 (stereo not drawn) [SL-11200]	0.089 nmoles/10^6 cells	0.043 nmoles/10^6 cells	0.095 nmoles/10^6 cells	0.053 nmoles/10^6 cells	1.4 µM	–	–	Put (putrescine) level (DuPro cells; [2]): 0.004 nmoles/10^6 cells; Spd (spermidine) level (DuPro cells; [2]): 0.029 nmoles/10^6 cells; Spd (spermidine) level (DuPro cells; [3]): 0.014 nmoles/10^6 cells; Put (putrescine) level (DuPro cells; [4]): 0.020 nmoles/10^6 cells; Spd (spermidine) level (DuPro cells; [4]): 0.027 nmoles/10^6 cells; Put (putrescine) level (DuPro cells; [5]): 0.011 nmoles/10^6 cells; Spd (spermidine) level (DuPro cells; [5]): 0.018 nmoles/10^6 cells
–	–	–	–	–	–	–	–	NCCCNCCCCNCCCN [spermine]	–	–	–	–	–	–	–	hydrolysis of ATP [1]: lack of ATP hydrolysis
